# Experimental data: patent US20130217579A1, “Pesticide Preparations Containing N-Substituted 2-Pyrrolidone-4-Carboxylic Acid Esters” (CLARIANT FINANCE (BVI) LIMITED, priority 2010, published 2013)
# Assay: Solubilities of pesticides in compounds of formula (1)
# Type: physicochemical
# Description: The solubilities of various pesticides were determined in various compounds of formula (1) at 25° C. All data are in % by weight (Table 1).
smiles,measurement,value
"CCCCOC(=O)C1CC(=O)N(C)C1 (centres unmarked) [Example 3, N-butyl N-methyl-2-pyrrolidone-4-carboxylate]",Solubility of Pendimethalin in compound of formula (1),38.9 % by weight
same,Solubility of Tebuconazole in compound of formula (1),37.0 % by weight
same,Solubility of Triadimefon in compound of formula (1),43.0 % by weight
same,Solubility of Trifloxystrobin in compound of formula (1),30.1 % by weight
same,Solubility of Trifluralin in compound of formula (1),57.4 % by weight
